± gives the expanded uncertainty stated by the source.
Settings: Liquid

CCCCn1cc[n+](C)c1.F[B-](F)(F)F [1-butyl-3-methylimidazolium tetrafluoroborate]
Settings | mass density [kg/m3]
239.75 K, 1875.4 kPa | 1243.62 ± 0.78
244.15 K, 9187.2 kPa | 1243.32 ± 0.82
244.15 K, 30106 kPa | 1251.69 ± 1
250.8 K, 41033 kPa | 1251.23 ± 1.1
251.15 K, 20631 kPa | 1242.83 ± 0.9
251.62 K, 1431.5 kPa | 1234.33 ± 0.76
256.79 K, 51047 kPa | 1250.8 ± 1.3
257.25 K, 10286 kPa | 1233.95 ± 0.8
257.26 K, 30540 kPa | 1242.41 ± 1
262.28 K, 59764 kPa | 1250.41 ± 1.4
263.49 K, 40569 kPa | 1241.97 ± 1.1
263.7 K, 20360 kPa | 1233.5 ± 0.88
264.47 K, 1197.4 kPa | 1225.08 ± 0.75
269.79 K, 50298 kPa | 1241.52 ± 1.2
270.25 K, 9963.8 kPa | 1224.68 ± 0.78
270.25 K, 30434 kPa | 1233.04 ± 0.97
275.57 K, 59083 kPa | 1241.11 ± 1.4
276.95 K, 19845 kPa | 1224.21 ± 0.86
276.97 K, 40555 kPa | 1232.57 ± 1.1
278.13 K, 1660 kPa | 1215.35 ± 0.74
283.48 K, 50231 kPa | 1232.1 ± 1.2
284.06 K, 30274 kPa | 1223.71 ± 0.97
284.1 K, 10163 kPa | 1214.93 ± 0.79
290.09 K, 59872 kPa | 1231.63 ± 1.4
291.27 K, 40686 kPa | 1223.19 ± 1.1
291.46 K, 20613 kPa | 1214.42 ± 0.88
292.09 K, 1445.8 kPa | 1204.99 ± 0.74
292.09 K, 1940.4 kPa | 1204.98 ± 0.74
298.12 K, 105.9 kPa | 1201.65 ± 0.74
298.12 K, 9550.8 kPa | 1204.57 ± 0.79
298.13 K, 10109 kPa | 1204.56 ± 0.79
298.14 K, 10428 kPa | 1204.76 ± 0.79
298.14 K, 29887 kPa | 1213.94 ± 0.99
298.58 K, 50942 kPa | 1222.67 ± 1.3
305.03 K, 19306 kPa | 1204.07 ± 0.88
305.53 K, 898.6 kPa | 1194.9 ± 0.74
305.54 K, 60508 kPa | 1222.17 ± 1.4
305.67 K, 40148 kPa | 1213.41 ± 1.1
313.03 K, 9790.3 kPa | 1194.22 ± 0.8
313.04 K, 29821 kPa | 1203.5 ± 1
313.04 K, 30149 kPa | 1203.7 ± 1
313.05 K, 10270 kPa | 1194.38 ± 0.8
313.06 K, 29280 kPa | 1203.51 ± 1
313.61 K, 50546 kPa | 1212.83 ± 1.3
320.1 K, 328.6 kPa | 1184.62 ± 0.74
320.51 K, 19693 kPa | 1193.85 ± 0.9
321.4 K, 60815 kPa | 1212.26 ± 1.4
321.61 K, 40890 kPa | 1202.88 ± 1.2
327.98 K, 48935 kPa | 1202.42 ± 1.3
328.18 K, 10050 kPa | 1184.05 ± 0.81
328.18 K, 28863 kPa | 1193.3 ± 1
328.18 K, 29052 kPa | 1193.14 ± 1
328.18 K, 29263 kPa | 1193.3 ± 1
328.22 K, 10050 kPa | 1184.05 ± 0.81
336.35 K, 39210 kPa | 1192.7 ± 1.2
336.68 K, 20276 kPa | 1183.44 ± 0.92
337.09 K, 59633 kPa | 1201.76 ± 1.5
344.2 K, 29113 kPa | 1182.9 ± 1
344.31 K, 48811 kPa | 1192.12 ± 1.3
353.68 K, 59697 kPa | 1191.42 ± 1.5
354.16 K, 40617 kPa | 1182.17 ± 1.2
